Assay results reported in patent US20240408069A1, “NON-INVASIVE MONITORING OF LIVER DISEASE TREATMENT” (INVENTIVA, priority 2023, published 2024).

What was measured:
[1] = system: adult patients with highly active, non-cirrhotic NASH; experiment: NATIVE phase 2b trial, histological response on liver biopsy after 24 weeks of lanifibranor; assay type: in vivo, human
Source text: Patients were eligible for inclusion if they were 18 years of age or older and had non-cirrhotic NASH (the diagnosis of which required a Steatosis, Activity, Fibrosis [SAF] grade of 1 or higher for steatosis, hepatocellular ballooning and lobular inflammation on liver biopsy). A score of 3 or higher on the SAF-A (the activity part of the SAF scoring system that incorporates the scores for hepatocellular ballooning and lobular inflammation) was also a criterion for eligibility. Patients with stage F4 fibrosis, classified according to the criteria of both the SAF and NASH Clinical Research Network (NASH CRN) were excluded from the study. Patients were randomly assigned in a 1:1:1 ratio to receive 800 or 1200 mg lanifibranor or placebo once daily for 24 weeks. Liver biopsy was obtained at baseline and at the end of treatment. The primary end point of the NATIVE study was defined as a decrease of at least 2 points from baseline to Week 24 (end of treatment) in the SAF-A score and no worsening of fibrosis. Secondary histologic end points included resolution of NASH (defined as a ballooning grade of 0 and a lobular inflammation grade of ≤1) and no worsening of fibrosis; improvement in fibrosis of at least 1 stage and no worsening of NASH (i.e., no worsening in either steatosis, ballooning, or lobular inflammation); Nonalcoholic Fatty Liver Disease Activity Score (NAS) improvement (defined as a decrease of >2 points from baseline to week 24 in the NAS) and no worsening of fibrosis; resolution of NASH and an improvement in fibrosis stage of at least 1 (as a composite end point); change in scores for the components of the SAF and NASH CRN scoring system (steatosis, activity, inflammation, ballooning, and fibrosis); and change in the modified Ishak score. Non-histologic secondary endpoints included changes in a panel of serum biomarkers related to metabolism, inflammation tissue injury and fibrosis. Patients receiving lanifibranor 800 or 1200 mg per day were pooled and those with pre- and post-treatment liver biopsies were selected (n=142). Post-treatment biopsies were considered if they occurred within 14 days following last lanifibranor intake. The following histological endpoint according to NASH-CRN criteria was considered: NASH resolution and fibrosis improvement of at least 1 stage (E1). In the NATIVE trial, from February 2017 through July 2019, 247 patients were randomly assigned to receive 1200 mg of lanifibranor (N=83), 800 mg of lanifibranor (N=83), or placebo (N=81) orally once daily for 6 months. A total of 228 patients completed the trial, 77 in each lanifibranor group and 74 in the placebo group. Reasons for discontinuation of the trial regimen have been reported elsewhere. Finally, among the 154 patients treated with lanifibranor at both doses, 142 patients (N=70 and N=72 patients treated with 800 or 1200 mg per day, respectively) presented with pre- and post-treatment liver biopsies within the time frame required for the present work and were included in the analysis population for signature development.

[2] = system: adult patients with highly active, non-cirrhotic NASH; settings: cited from earlier work

O=C(O)CCCc1cc2cc(Cl)ccc2n1S(=O)(=O)c1ccc2ncsc2c1 [lanifibranor, 4-[1-(1,3-benzothiazol-6-ylsulfonyl)-5-chloroindol-2-yl] butanoic acid]
Resolution of NASH and improvement of liver fibrosis ≥1 Stage (E1), number of patients reaching endpoint ([1]; 800 mg once daily, N=70): 17 patients | Resolution of NASH and improvement of liver fibrosis ≥1 Stage (E1), patients reaching endpoint ([1]; 800 mg once daily, N=70): 24% | Resolution of NASH and improvement of liver fibrosis ≥1 Stage (E1), number of patients reaching endpoint ([1]; 1200 mg once daily, N=72): 25 patients | Resolution of NASH and improvement of liver fibrosis ≥1 Stage (E1), patients reaching endpoint ([1]; 1200 mg once daily, N=72): 35% | Resolution of NASH and improvement of liver fibrosis ≥1 Stage (E1), number of patients reaching endpoint ([1]; pooled lanifibranor group (800 or 1200 mg once daily), N=142): 42 patients | Resolution of NASH and improvement of liver fibrosis ≥1 Stage (E1), patients reaching endpoint ([1]; pooled lanifibranor group (800 or 1200 mg once daily), N=142 with pre- and post-treatment biopsies): 30% | Percentage of patients with a decrease of at least 2 points in SAF-A score without worsening of fibrosis, compared to placebo ([2]; daily dose of 1200 mg, versus placebo): significantly higher | Secondary endpoints (NASH resolution and fibrosis improvement, NASH resolution without worsening of fibrosis, improvement of fibrosis without worsening of NASH), compared to placebo ([2]; lanifibranor groups versus placebo, NASH-CRN): more favorable than placebo
